{
  "source": "patent US20240197666A1",
  "about": "“DITERPENOID COMPOUNDS THAT ACT ON PROTEIN KINASE C (PKC)” (K-Gen Therapeutics, Inc., priority 2021, published 2024)",
  "key": {"C1b domain of human PKCα": {"target": "T1, C1b domain of human PKCα (Homo sapiens, UniProt P17252)", "T1 construct": "Genes encoding C1b domains of human PKCα, δ, ε, θ, and PKD1 (PKCμ) were synthesized; made in house; host or cells: E. coli BL21(DE3)", "assay": "biochemical", "type": "binding", "conditions": "3H-PDBu competition"}, "[1]": {"system": "phosphorylation of PKCμ, PKCδ and Erk1/2 in A549 lung cancer cells", "assay": "Western blot of activation of PKC and downstream target protein in A549 cells", "type": "cell-based", "conditions": "0.3 μM, 30 minutes", "description": "According to the methods described in patent (WO/2017/083783) A549 lung cancer cells (˜3 million cells) were seeded in 10 cm tissue culture dishes (or ˜1 million cells in 6 cm dish) and grown overnight. Cells were then treated with different drugs at indicated concentrations for 30 minutes. Cell lysate preparation, protein quantitation, SDS-PAGE, and Western blotting procedures are described (WO/2017/083783). β-actin or Vinculin was used as loading controls. Imagequant LAS4000 (GE) was used to scan membranes if secondary antibodies anti-mouse IgG HRP conjugate or anti-rabbit IgG HRP conjugate (dilutions from 1:2000-1:10000) were used. For ProteinSimple Wes system, manufacture's procedure was followed (ProteinSimple 12-230 kDa Wes Separation Module) for sample preparation, loading, running, and data analysis.\nPhosphorylation of these sites has been linked to acute activation or catalytic activity of the PKC isoforms and Erk1/2. High level of phosphorylation indicates strong activation.\nA subset of the diterpenoid compounds with good binding affinity to novel PKC isoforms and PKCμ was tested at two different concentrations in A549 cells to assess activation of PKCμ, PKCδ, and Erk1/2 by Western blot analysis. In addition to the phospho-specific antibodies described above, an additional phospho-specific antibody P-PKCδ (S299) (Abcam cat #133456) was also used. This antibody has been shown in the literature (Durgan et al., FEBS Lett. 2007, 581(18):3377-81, Novel phosphorylation site markers of protein kinase C delta activation) to be able to detect activation of PKCδ. K-101 (prostratin, 1 μM) was included as reference compounds."}, "A549 cell line": {"system": "A549 cell line", "assay": "Proliferation of A549 (CellTiter Glo)", "type": "cell-based", "conditions": "Homo sapiens, A549, 96 h, read-out: IC50 μM (A549 Cell Line)", "procedure,_shortened": "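Compound effect on proliferation was read as CellTiter Glo luminescence after 96 h exposure to a 3-fold dilution series (≤0.25% DMSO). A549 cells, which carry activating K-Ras, were plated at 1,000/well one day before dosing. IC50, relative IC50 and maximal inhibition were fitted from % inhibition versus DMSO control.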"}, "HL-60 (Leukemia)": {"system": "HL-60 (Leukemia)", "assay": "Proliferation of HL-60", "type": "cell-based", "conditions": "for IC50: Homo sapiens"}, "Namalwa (Lymphoma)": {"system": "Namalwa (Lymphoma)", "assay": "Proliferation of Namalwa", "type": "cell-based", "conditions": "for IC50: read-out: IC50 Namalwa (Lymphoma)", "procedure,_shortened": "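Proliferation was measured in the K-Ras mutant pancreatic lines and in HL-60 and Namalwa cells. These were plated at densities set per line and left 24 h before compound was added. After 96 h with serially diluted compound, viability was read by CellTiter Glo and IC50 derived.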"}, "Mino (Lymphoma)": {"system": "Mino (Lymphoma)", "assay": "Proliferation of Mino", "type": "cell-based", "conditions": "for IC50: Homo sapiens, MINO, read-out: IC50 Mino (Lymphoma)", "procedure,_shortened": "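Luminescent ATP read-out (CellTiter Glo) after 96 h compound exposure gave % inhibition relative to DMSO-treated cells, from which IC50 was fitted. Seeding densities were line-specific, from 800 to 10000 cells/well. Potency across batches was normalised to reference compound K101.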"}, "[2]": {"system": "NFκB-driven transcription in HeLa-NFκB luciferase reporter cell line", "assay": "NFκB luciferase reporter assay", "conditions": "Homo sapiens, HeLa, 16 h, read-out: NFκB-luc HeLa cells EC50 (μM)"}, "C1b domain of human PKCε": {"target": "T2, C1b domain of human PKCε (Homo sapiens, UniProt Q02156)", "T2 construct": "Genes encoding C1b domains of human PKCα, δ, ε, θ, and PKD1 (PKCμ) were synthesized; made in house; host or cells: E. coli BL21(DE3)", "T2 sequence (Q02156 242-292 limits assumed)": "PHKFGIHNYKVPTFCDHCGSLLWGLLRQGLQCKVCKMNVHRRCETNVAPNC", "assay": "biochemical", "type": "binding", "conditions": "3H-PDBu competition", "procedure,_shortened": "(§1)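 GST-C1b (human, E. coli-expressed) + 3H-PDBu + compound; 37° C 10 min shaking, then ice 20 min. Filter capture, scintillation count. IC50 → Ki via Cheng-Prusoff, per-prep measured Kd.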"}, "C1b domain of human PKCθ": {"target": "T3, C1b domain of human PKCθ (Homo sapiens, UniProt Q04759)", "T3 construct": "Genes encoding C1b domains of human PKCα, δ, ε, θ, and PKD1 (PKCμ) were synthesized; made in house; host or cells: E. coli BL21(DE3)", "T3 sequence (Q04759 231-281 limits assumed)": "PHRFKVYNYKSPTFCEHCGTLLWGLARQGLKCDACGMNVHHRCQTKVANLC", "assay": "biochemical", "type": "binding", "conditions": "3H-PDBu competition", "procedure,_shortened": "as §1"}, "Panc2.13 (Pancreatic)": {"system": "Panc2.13 (Pancreatic)", "assay": "Proliferation of Panc2.13", "type": "cell-based", "description": "(§2) The diterpenoid compounds were tested in A549, a non-small cell lung cancer cell line harboring a K-Ras activating mutation. Briefly, A549 cells at a density of 1,000 cells/well were seeded in 96-well plates and incubated at 37° C. for 24 hours. A series of different concentrations of compound stocks (500×) were prepared by 3-fold serial dilution in DMSO. These compounds were further diluted in culture media and then added to cells so that the final DMSO concentration was not exceeding 0.25%. After 96 hours of incubation, 50 μL of CellTiter Glo reagent (Promega) was added to each well and luminescence was measured after 10 minutes using EnVision (PerkinElmer). Luminescence from cells treated with DMSO alone was set as Max and % of inhibition was calculated as follows: Inhibition %=(Max-Sample value)/Max×100. Data was analyzed using XL-fit software (ID Business Solutions Ltd.) and IC50, relative IC50, and % of top inhibition was calculated. Some of the compounds in this disclosure were very potent in blocking proliferation of A549 lung cancer cells at low nM range. In addition, potency of inhibiting A549 proliferation correlated well with its binding affinity to PKCs for this series of compounds. In other words, higher affinity binders had stronger inhibitory effects on A549 proliferation. This further support the notion that activation, rather than inhibition, of certain PKC isoforms is required to block proliferation of cancer cells, some of which may harbor K-Ras mutations. This is in sharp contrast to previous literature and common belief that inhibition of PKC is necessary to block cancer cell growth (Kang, 2014, New Journal of Science, 2014:1-36). Data presented here is in agreement with recent findings that many loss-of-function but not gain-of-function mutations of PKC isoforms have been identified in many human cancers (Antal et al., 2015, Cell, 160:489-502).\n(§3) The compounds in this disclosure were tested for their potency in blocking proliferation of a few other cancer cells lines, including K-Ras mutant pancreatic cell lines Panc2.13 and KP-4, leukemia cell line HL-60, and lymphoma cell lines Namalwa and Mino. Similar procedures as in Example 67 were followed. Initial cell numbers seeded in 96-well plates were different for different cell lines: 3000 cells/well for Panc2.13; 800-1000 cells/well for KP-4; 5000 cells/well for HL-60; 5000-10000 cells/well for Namalwa and Mino. A ratio of (IC50 of K101)/(IC50 of compound) (data in parenthesis in Table 5) was used to normalize the compound potency from different assay batches to a common comparator K101."}, "KP-4 (Pancreatic)": {"system": "KP-4 (Pancreatic)", "assay": "Proliferation of KP-4", "type": "cell-based", "conditions": "read-out: IC50 KP-4 (Pancreatic)", "description": "as §2, §3"}, "PANC1 cells": {"system": "PANC1 cells", "assay": "Sphere formation assay", "type": "cell-based", "conditions": "Homo sapiens, PANC-1, read-out: concentration exhibiting at least 50% inhibition on the sphere forming efficiency", "description": "A group of diterpenoid compounds of the present disclosure were tested to assess their effects on blocking formation of spheres from cancer cell lines such as PANC1, a K-Ras mutant pancreatic cell line. Briefly, PANC1 cells were harvested, re-suspended as single cell suspensions, counted and seeded into Ultra Low Attachment Culture 96-well plate (Corning, Cat #3474) at 100 cells/well in 100 μl of complete media (with 10% FBS) containing 2% Matrigel (Corning, Cat #354234) and DMSO or compounds. Six replicates per condition were seeded. The seeded cells were placed in the 37° C. tissue culture incubator. 10 μl of low serum containing media (with 0.1% FBS) was added to each well every week. Spheres formed after 3-4 weeks were counted. Sphere forming efficiency was expressed as percentage of # of spheres/ # of cells seeded."}},
  "note": "Like-named read-outs stand apart in the source and are kept apart here.",
  "data": [
    {"smiles": "CC1=C[C@H]2[C@@]3(O)[C@H](C)C[C@]4(OC(=O)CCc5ncc(-c6ccc(Cl)cc6)o5)[C@H]([C@@H]3C=C(CO)C[C@]2(O)C1=O)C4(C)C", "values": [
      {"measurement": "Ki", "setting": "C1b domain of human PKCα", "value": "60 to 100", "unit": "nM"},
      {"measurement": "phosphorylation of PKCμ, PKCδ and Erk1/2", "setting": "[1]", "value": "induced high levels of phosphorylation"},
      {"measurement": "IC50", "setting": "A549 cell line", "value": "0.03 to 0.06", "unit": "µM"},
      {"measurement": "ratio (IC50 of K101)/(IC50 of compound) HL-60", "setting": "HL-60 (Leukemia)", "value": 5.71},
      {"measurement": "IC50", "setting": "HL-60 (Leukemia); HL-60, 96 h, read-out: IC50 HL-60 (Leukemia)", "value": "100 to 600", "unit": "nM"},
      {"measurement": "ratio (IC50 of K101)/(IC50 of compound) Namalwa", "setting": "Namalwa (Lymphoma)", "value": 1.15},
      {"measurement": "IC50", "setting": "Namalwa (Lymphoma)", "value": "30 to 60", "unit": "nM"},
      {"measurement": "ratio (IC50 of K101)/(IC50 of compound) Mino", "setting": "Mino (Lymphoma)", "value": 5.36},
      {"measurement": "IC50", "setting": "Mino (Lymphoma)", "value": "10 to 30", "unit": "nM"},
      {"measurement": "EC50", "setting": "[2]", "value": "0.1 to 0.2", "unit": "µM"}
    ]},
    {"smiles": "CC1=C[C@H]2[C@@]3(O)[C@H](C)C[C@]4(OC(=O)[C@@H](N)CCCCCCc5ccc(C(F)(F)F)cc5)[C@H]([C@@H]3C=C(CO)C[C@]2(O)C1=O)C4(C)C", "values": [
      {"measurement": "Ki", "setting": "C1b domain of human PKCα", "value": "60 to 100", "unit": "nM"},
      {"measurement": "Ki", "setting": "C1b domain of human PKCε", "value": "10 to 30", "unit": "nM"},
      {"measurement": "Ki", "setting": "C1b domain of human PKCθ", "value": "10 to 30", "unit": "nM"},
      {"measurement": "IC50", "setting": "A549 cell line", "value": "0.01 to 0.03", "unit": "µM"}
    ]},
    {"smiles": "CC1=C[C@H]2[C@@]3(O)[C@H](C)C[C@]4(OC(=O)[C@@H](N)CCCc5ccccc5)[C@H]([C@@H]3C=C(CO)C[C@]2(O)C1=O)C4(C)C", "values": [
      {"measurement": "Ki", "setting": "C1b domain of human PKCα", "value": "60 to 100", "unit": "nM"},
      {"measurement": "phosphorylation of PKCμ, PKCδ and Erk1/2", "setting": "[1]", "value": "induced high levels of phosphorylation"},
      {"measurement": "IC50", "setting": "A549 cell line", "value": "0.06 to 0.1", "unit": "µM"},
      {"measurement": "ratio (IC50 of K101)/(IC50 of compound) Panc2.13", "setting": "Panc2.13 (Pancreatic)", "value": 3.65},
      {"measurement": "IC50", "setting": "Panc2.13 (Pancreatic); read-out: IC50 Panc2.13 (Pancreatic)", "value": "200 to 600", "unit": "nM"},
      {"measurement": "IC50", "setting": "KP-4 (Pancreatic)", "value": "100 to 200", "unit": "nM"},
      {"measurement": "ratio (IC50 of K101)/(IC50 of compound) HL-60", "setting": "HL-60 (Leukemia)", "value": 1.79},
      {"measurement": "IC50", "setting": "HL-60 (Leukemia); HL-60, read-out: IC50 HL-60 (Leukemia)", "value": "30 to 60", "unit": "nM"},
      {"measurement": "ratio (IC50 of K101)/(IC50 of compound) Namalwa", "setting": "Namalwa (Lymphoma)", "value": 1.53},
      {"measurement": "IC50", "setting": "Namalwa (Lymphoma)", "value": "30 to 60", "unit": "nM"},
      {"measurement": "ratio (IC50 of K101)/(IC50 of compound) Mino", "setting": "Mino (Lymphoma)", "value": 6},
      {"measurement": "IC50", "setting": "Mino (Lymphoma)", "value": "10 to 30", "unit": "nM"},
      {"measurement": "IC50", "setting": "PANC1 cells", "value": "≤ 1500", "unit": "nM"},
      {"measurement": "EC50", "setting": "[2]", "value": "0.06 to 0.1", "unit": "µM"}
    ]}
  ]
}
